Experimental data reported in patent publication US20210177722A1, “Phytic Acid Ester Derivative” (NATIONAL UNIVERSITY CORPORATION KUMAMOTO UNIVERSITY, priority 2018, published 2021).

Key:
[1] = tested on: M8166 cell (human T-lymphoblastoid cell); assay: MTT assay, M8166 cell; format: cell-based; details: M8166 cell, 1 μM or 10 μM, 8 hours or 24 hours
Method: (§1) In this example, the cytotoxic effect of Pro-IP6 on four types of blood cancer cell lines and a cell derived from a healthy person was examined by MTT assay. […] It is possible to check viability of cultured cells by MTT assay. Cancer cell lines (1.74×10^4 cells/well, culture fluid: 200 μL) • MT-2 cell (HTLV transformed human T cell leukemia cell) • […] cell (human T-lymphoblastoid cell) • Jurkat cell (human T-lymphocyte cell) • K562 cell (chronic myelogenous leukemia cell) Each of the above-described types of cells was seeded in a 96-well plate, and was cultured for 8 hours for each of the various cancer cell lines and for 16 hours for PMBC. Thereafter, DMSO (1%, Fujifilm Wako Pure Chemical Corporation), an aqueous solution (1%) of IP6 (final concentration: 1 μM or 10 μM, Sigma Aldrich), or a DMSO solution (1%) of Pro-IP6 (final concentration: 1 μM or 10 μM) was added thereto, followed by culturing for 8 hours or 24 hours. An MTT reagent (Dojindo Laboratories, 1.1 mg/mL) was added in an amount of 50 μL per well, and the resultant was cultured for another 4 hours. The thus precipitated crystal was collected, a supernatant was removed, and 100 μL of DMSO was added thereto to completely dissolve. The resultant solution was measured for an absorbance (550 nm).

[2] = tested on: MT-2 cell (HTLV transformed human T cell leukemia cell); assay: MTT assay, MT-2 cell; format: cell-based; details: 1 μM or 10 μM, 8 hours or 24 hours
Method: as §1

[3] = tested on: Jurkat cell (human T-lymphocyte cell); assay: MTT assay, Jurkat cell; format: cell-based; details: Jurkat cell, 1 μM or 10 μM, 8 hours or 24 hours
Method: as §1

HeLa cell = assay: Quantitative determination of IP6 in cell (LC/MS of IP6 methyl ester); format: cell-based; details: HeLa cells, 10 μM, 30 minutes
Method: In this example, incorporation of Pro-IP6 into a HeLa cell was quantitatively determined.
HeLa cells (5×10^5 cells/well, culture fluid: 1 mL) were seeded in a 3.5 cm dish to be cultured for 24 hours. Thereafter, DMSO (1%, Fujifilm Wako Pure Chemical Corporation), an aqueous solution (1%) of IP6 (final concentration: 10 μM, Sigma Aldrich), or a DMSO solution (1%) of Pro-IP6 (final concentration: 10 μM) synthesized in Example 1 was added thereto, and the resultant was cultured for another 30 minutes. HeLa cells were cultured with neither IP6 nor Pro-IP6 added, followed by adding the same amount of DMSO thereto, and the resultant was used as a negative control.
Thereafter, the resultant was washed with 1× PBS (−) once, and the resultant cells were scraped with a cell scraper, transferred to a 1.5 mL tube, and washed with 1× PBS (−) three times. To the thus obtained precipitate, 350 μl of MeOH (Fujifilm Wako Pure Chemical Corporation) and 1% NP-40 (Nacalai Tesque, Inc.) were added, followed by sonication (10 minutes). After equilibrating a column (Oasis WAX 1cc, Waters) with MeOH (1 mL) and H2O (1 mL), a disrupted cell extract was added thereto. Thereafter, the column was washed with 50% MeOH (1 mL), and eluted with 50% MeOH (200 μL×2) containing 2 mol/L of HCl (Fujifilm Wako Pure Chemical Corporation). The thus obtained eluate was concentrated, and dissolved in MeOH (50 μL), and trimethylsilyldiazomethane (200 μl, Tokyo Chemical Industry Co., Ltd.) was added thereto, followed by stirring at 50° C. for 1 hour under argon atmosphere. The reaction was stopped by adding H2O (100 μL). Through a reaction of trimethylsilyidiazomethane with IP6, IP6 methyl ester is obtained.
The thus obtained sample (IP6 methyl ester) was measured by LC/MS [column: MastroC18 2.1 mm×100 mm, […] (Shimadzu GLC Ltd.), mobile phase: 0.1% formic acid solution (Fujifilm Wako Pure Chemical Corporation), acetonitrile (Fujifilm Wako Pure Chemical Corporation)] [LC:LC-20AD (Shimadzu), MS: amaZon speed (BRUKER)].

[4] = tested on: S1T cell (ATL cell line) tumor; assay: Effect on HTLV-1 infected cell-transplanted mouse (ATL model); format: in vivo; details: day 28 after transplantation, 7.1 mg/kg per day intraperitoneally for 28 days, NSG mice with S1T cells
Source text: In this example, the in vivo effect of Pro-IP6 on an HTLV-1 infected cell-transplanted mouse was checked. HTLV-1 (human T cell leukemia virus 1) mainly infects CD4-positive T lymphocyte, and when the infected cell cancerates, refractory malignant tumor, adult T-cell leukemia (ATL) is caused. In this example, S1T cell, that is, one of ATL cell lines, was used.
5-Week-old female NSG mice (NOD. Cg-Prkdc scid I12rg tm1Wjl/SzJ, Charles River Laboratories Japan, Inc.) were used. Five mice each in each of two cages, namely, ten mice in total, were raised with sterilized bedding (Pepar Clean: Japan SLC, Inc.) placed in a sterilized cage (Clea Japan, Inc.). […]
The control group was dosed with DMSO, and the IP6 administration group and the pro-IP6 administration group were intraperitoneally dosed respectively with IP6 in an amount of 7.1 mg/kg and pro-IP6 in an amount of 20 mg/kg. The mice were dosed continuously for 28 days after the day of the cell transplantation, and the weight and the tumor volume of each mouse were measured every day. The tumor volume was defined as (shorter diameter in mm)^2×(longer diameter in mm)×0.5, and the shorter diameter and the longer diameter were measured with a caliper. […] Subsequently, the tumor was totally removed, and the tumor volume and the tumor weight of each tumor were measured.

[5] = tested on: K562 cell (chronic myelogenous leukemia cell); assay: MTT assay, K562 cell; format: cell-based; details: 1 μM or 10 μM, 8 hours or 24 hours
Method: as §1

O=P(O)(O)O[C@H]1[C@H](OP(=O)(O)O)[C@@H](OP(=O)(O)O)[C@H](OP(=O)(O)O)[C@@H](OP(=O)(O)O)[C@H]1OP(=O)(O)O [IP6, myo-inostiol-1,2,3,4,5,6-hexaphosphate, reference compound]
cytotoxic effect [1]: minimally exhibited the effect | cytotoxic effect [2]: minimally exhibited the effect | cytotoxic effect [3]: minimally exhibited the effect | incorporation into HeLa cell (IP6 methyl ester by LC/MS vs negative control) (HeLa cell): substantially the same as that of the negative control | tumor volume compared with that of the control group [4]: not significantly different | cytotoxic effect [5]: minimally exhibited the effect
